The text below walks through data of paper PMC9841525, “Chemical Blockage of the Mitochondrial Rhomboid Protease PARL by Novel Ketoamide Inhibitors Reveals Its Role in PINK1/Parkin-Dependent Mitophagy” (Journal of Medicinal Chemistry, 2022).

The target in series [1] is T1, GlpG (Escherichia coli, UniProt P09391).
T1 construct: Full-length GlpG with C-terminal His-tag was overexpressed from pET25b + in E. coli C43(DE3); His-tag (C); made in house; host or cells: E. coli C43(DE3)
The series is classed as biochemical, E. coli. The method, then: Emission spectra of aminomethyl coumarin and cleavage of compound 1 were monitored in 50 mM potassium phosphate pH 7.4, 150 mM NaCl, 20% (w/v) glycerol, 0.05% (w/v) PEG8000, 0.05% (w/v) DDM, 10% (w/v) DMSO. The compounds (1 mM) were incubated with 10 μM GlpG WT or S201T, 1 μM elastase, or buffer, respectively, as indicated in the legend of Figure 1A at 37 °C for 1 h. Samples were diluted 8-fold with buffer, and emission spectra were measured in 96-well black HTS plates (Greiner Bio-One) by a plate reader (Tecan Infinite M1000) using an excitation wavelength of 355 nm. Data were evaluated using Excel (Microsoft) and GraphPad Prism 9 (GraphPad Software, Inc.). The data shown are representative of three independent experiments.
(§1) Activity and inhibition assays of GlpG shown in Figure 1B–D were carried out in 50 mM potassium phosphate pH 7.4, 150 mM NaCl, 20% (v/v) glycerol, 0.05% (w/v) PEG8000, 0.05% (w/v) DDM, and 5% (v/v) DMSO. […] All activity measurements were performed at 37 °C in 96-well black HTS plates (Greiner Bio-One) and fluorescence was monitored in a plate reader (Tecan Infinite M1000) with excitation and emission wavelengths set to 355 and 450 nm, respectively, for compound 1, and 335 and 493 nm, respectively, for the transmembrane substrate KSp96. Data were evaluated using Excel (Microsoft) and GraphPad Prism 9 (GraphPad Software, Inc.).
Activity measurements of GlpG with varying DDM concentrations were obtained in 20 mM HEPES (pH 7.4), 150 mM NaCl using 100 nM GlpG, and DDM at the concentration indicated in the graphs. Buffer for measurements with compound 1 contained additionally 5% (v/v) DMSO. Compound 1 and transmembrane substrate were used at 10 μM final concentration. Activity measurements were performed at 37 °C in 96-well black HTS plates (Greiner Bio-One), and fluorescence was monitored in a plate reader (Tecan Infinite M1000) with excitation and emission wavelengths set to 355 and 450 nm for compound 1 and 335 and 493 nm for the transmembrane substrate, respectively. Data were evaluated using Excel (Microsoft) and GraphPad Prism 9 (GraphPad Software, Inc.).

Series [2] can be described thus: Solubility of fluorogenic substrates in assay buffer (qualitative).
Series [3] deals with T1, GlpG. The series is described as follows: Inhibition assay of GlpG with fluorogenic substrate compound 1. The series is classed as biochemical, E. coli. Particulars: detergent-solubilized GlpG 100 nM, substrate compound 1, 1 h preincubation at 37 °C, mean ± SEM of three measurements. The method, then: as §1
The test system of series [4] is Parkin. The series can be described thus: Parkin recruitment to mitochondria and mitochondrial morphology, fluorescence microscopy. The following applies: HEK293 T-REx PINK1 cells, 3 h. The series is classed as cell-based, human. The protocol:
(§2) Inducible stable Flp-In HEK293 T-REx cells expressing PINK1 were described previously.[33] HEK293 T-REx PINK1 and HEK293T cells were grown in DMEM (Gibco) supplemented with 10% (v/v) fetal bovine serum (ThermoFisher), 1% (v/v) GlutaMAX (Gibco), 1% (v/v) sodium pyruvate (Gibco), 125 μg/mL hygromycin (Invitrogen), and 10 μg/mL blasticidin (Gibco) or DMEM supplemented with 10% (v/v) fetal bovine serum, respectively, at 37 °C in 5% (v/v) CO2. For microscopy, cells were seeded on poly-L-lysine (Sigma)-coated slides. Transient plasmid transfections were performed using 25 kDa linear polyethylenimine (Polysciences). Plasmid (100 ng) encoding HA-Parkin-IRES-GFP, mito-mCherry or Parkin-mEGFP, or 500 ng plasmid encoding PGAM5-FLAG were used per 6-well. Total transfected DNA was 2 μg/well. For siRNA transfection, 2 × 10^5 cells were seeded per 6-well and on the next day transfected with 20 nM siRNA-oligonucleotide using lipofectamine RNAiMAX (ThermoFisher). Cells were analyzed 27 h post-transfection or five days post-siRNA-transfection. HEK293 T-REx PINK1 cells were induced with 0.3 μg/mL doxycycline for 24 h before further processing. Hoechst staining (1 μg/mL) was done immediately before adding treatment to the cells. Treatments were administered for the indicated times before processing; CCCP (Sigma) was always used as 10 μM for 3 h and Antimycin A (Sigma) as 30 μM for 3 h.
(§3) For fixation, cells were incubated for 15 min with 4% formaldehyde (16% formaldehyde diluted in PBS, Thermo Scientific) and washed in PBS. The cover glasses were mounted with Fluoromount-G (Southern Biotech) on microscope slides. […] Parkin recruitment events to the mitochondria were counted by hand throughout each z-stack and cell. […] JC-1 images were handled as summed intensity z-stack projections, as well as subjected to flatfield correction and subtraction of background before measuring the fluorescence levels normalized to the number of cell nuclei. The fluorescence intensity ratio between the red and green signal was calculated and compared to DMSO as a ratio of 1. Data were evaluated using Excel and GraphPad Prism 6.

In series [5] the test system is Parkin. The series can be described thus: Parkin recruitment to mitochondria, subcellular fractionation and immunoblot. The series is classed as cell-based, human. Particulars: HEK293 T-REx PINK1 cells, HA-Parkin-IRES-GFP; 5 μM compound 5, CCCP 10 μM or Antimycin A 30 μM. The method, then: as §2
Unless mentioned otherwise, all steps were performed at 4 °C. For subcellular fractionation to separate cellular content into cytosolic and mitochondrial fractions, cells were washed with PBS, harvested in PBS-EDTA (1 mM EDTA, 0.2 g/L D-glucose), and centrifuged at 500 × g for 5 min. […]
For immunoblot analysis in other cases, cells were either processed as described above or washed with PBS and directly lysed with Tris-glycine SDS-PAGE sample buffer and heated for 15 min at 65 °C. […] For quantification, ImageJ was used (http://rsb.info.nih.gov/ij/). […]
Background: A western blot detects proteins with antibodies after separation by electrophoresis.

For another series, the system named is HEK293T cells. The series can be described thus: JC-1 mitochondrial membrane potential assay. The series is classed as cell-based, human. Particulars: 5 µM compound 5 or CCCP, at least three hours, compared to DMSO. The method, then: Staining of cells for the determination of mitochondrial membrane potential was carried out with the JC-1 mitochondrial staining kit (Sigma-Aldrich) according to the kit’s instructions; stained cells were immediately taken to live cell imaging.
as §3, with “slides. All microscopy was performed on an LSM 780 system (Carl Zeiss) with a Plan-APOCHROMAT 63× 1.4NA oil objective (Carl Zeiss) and pinhole settings of 1 AU with the Zeiss ZEN 2010 software. Image processing and analysis was performed using ImageJ (http://rsb.info.nih.gov/ij/).” for “slides.”

The target of the next series is T2, PARL (Homo sapiens, UniProt Q9H300).
T2 sequence (Q9H300 53-379): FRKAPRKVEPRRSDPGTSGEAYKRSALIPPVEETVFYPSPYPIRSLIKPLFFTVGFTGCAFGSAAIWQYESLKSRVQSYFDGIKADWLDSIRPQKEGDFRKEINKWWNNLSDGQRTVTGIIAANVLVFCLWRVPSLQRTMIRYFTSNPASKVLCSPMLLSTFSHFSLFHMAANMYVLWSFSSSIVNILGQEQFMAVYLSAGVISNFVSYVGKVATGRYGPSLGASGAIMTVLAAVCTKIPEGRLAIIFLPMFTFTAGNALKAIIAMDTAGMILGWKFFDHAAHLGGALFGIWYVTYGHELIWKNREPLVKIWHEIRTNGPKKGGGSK
The series can be described thus: In vitro assay for PARL activity, cleavage of AMC substrates by liposome-embedded PARL. The series is classed as biochemical. Details: hexahistidine tag (C); made in house; host or cells: continuous-exchange cell-free expression in bacterial lysates with T7 polymerase (CUBE biotech), into liposomes. The following applies: mature PARL in liposomes, S277A catalytic mutant as control. The method, then:
Liposome preparation and cell-free protein expression of PARL were carried out essentially as described previously.[27] Liposomes resembling the lipid composition of the IMM were prepared by mixing 40% DOPC (1,2-dioleoyl-sn-glycero-3-phosphocholine), 33.8% DOPE (1,2-dioleoyl-sn-glycero-3-phosphoethanolamine), 18% CL(18:1)4 (1′,3′-bis[1,2-dioleyl-sn-glycero-3-phospho]-glycerol), 3% DOPS (1,2-dioleoyl-sn-glycero-3-phospho-L-serine), 5% soy-PI (L-α-phosphatidylinositol), and 0.2% rhodamine-PE (1,2-dioleoyl-sn-glycero-3-phosphoethanolamine-N-(lissamine rhodamine B sulfonyl)) in chloroform, followed by the evaporation of chloroform by a stream of nitrogen gas and drying in a vacuum chamber (Binder) for 1 h. […] Concentration of PARL was determined by absorption at 280 nm.
The PARL activity assay in vitro was carried out in 5 mM Tris, 5 mM Mg(OAc)2, 25 μM Zn(OAc)2, 0.1 μg/μL BSA, 30% DMSO, pH 8.0 using PARL in liposomes at 0.05 mg/mL. Compound 3 and 4 were used at 5 μM final concentration based on quantitative amino acid analysis. […] The cleavage reaction was carried out at 37 °C in 96-well black HTS plates (Greiner Bio-One) in a plate reader (Tecan Infinite M1000) with excitation and emission wavelengths set to 355 and 450 nm, respectively. Data were evaluated using Excel (Microsoft) and GraphPad Prism 9 (GraphPad Software, Inc.).

Entries after “also recorded” stand apart in the source; their conditions may differ. Where a SMILES comes first, the peptide text is derived from it. The star is where a group is joined. AMC = Cc1cc(=O)oc2cc(N*)ccc12

Broadly, the IC50 is the point on the concentration scale where inhibition reaches its midpoint. A higher IC50 goes with lower potency.

T1 sequence (P09391 whole entry): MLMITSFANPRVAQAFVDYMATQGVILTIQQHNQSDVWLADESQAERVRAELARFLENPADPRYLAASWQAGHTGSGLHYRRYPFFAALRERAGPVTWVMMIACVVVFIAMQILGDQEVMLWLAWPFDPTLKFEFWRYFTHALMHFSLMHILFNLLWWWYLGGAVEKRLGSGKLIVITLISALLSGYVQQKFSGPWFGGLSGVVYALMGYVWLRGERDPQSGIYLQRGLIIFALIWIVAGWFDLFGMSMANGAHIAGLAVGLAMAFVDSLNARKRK

As to `CC(=O)N[C@@H](CCCNC(=N)N)C(=O)N[C@H](C(=O)N[C@@H](CCCNC(=N)N)C(=O)N[C@@H](Cc1c[nH]cn1)C(=O)N[C@@H](C)C(=O)Nc1ccc2c(C)cc(=O)oc2c1)C(C)C` [compound 1, AcRVRHA-4mc] (Ac-RVRHA-{AMC}), the “Apparent Michaelis constant for substrate” value at GlpG [1] (GlpG in DDM micelle environment) is “approximately 500 μM”. Further, on GlpG [1] (GlpG, detergent), the “Michaelis constant KM for substrate” value is listed as “about half”. Further, on GlpG [1] (detergent micelles and/or DIBMA lipid nanodiscs), the “Cleavage of substrate by GlpG” value is “cleaved by GlpG with similar efficiency in lipid nanodiscs and in detergent micelles; also recorded: can be cleaved by active GlpG embedded in polymer nanodiscs”. Further, the Solubility of substrate result in series [2] is on record as “sufficiently soluble to be useable at hundreds of micromolar concentrations”.
The compound `CC(=O)N[C@H](C(=O)N[C@@H](CCCNC(=N)N)C(=O)N[C@@H](Cc1c[nH]cn1)C(=O)N[C@@H](C)C(=O)C(=O)NCCCCc1ccccc1)C(C)C` [compound 2] gave an IC50 against GlpG [3] of 132 ± 23 nM.
Take `N#CC(C#N)=NNc1cccc(Cl)c1` [CCCP, carbonyl cyanide m-chlorophenyl hydrazone]: in the series on Parkin [4], the Mitochondrial morphology result was “severe rounding and clustering”. Further, the “Parkin recruitment to the mitochondrial fraction” value in the series with Parkin [5] is on record as “significant recruitment of Parkin to the mitochondrial fraction”. In addition, the “Effect on mitochondrial membrane potential (JC-1 aggregate to monomer ratio)” value in the series on HEK293T cells is given as “lowers the membrane potential”.
For the compound `CC(=O)N[C@@H](CCCNC(=N)N)C(=O)N[C@@H](CCCNC(=N)N)C(=O)N[C@@H](CCCNC(=N)N)C(=O)N[C@@H](C)C(=O)N[C@H](C(=O)N[C@@H](Cc1ccccc1)C(=O)N[C@@H](CC(C)C)C(=O)N[C@@H](C)C(=O)Nc1ccc2c(C)cc(=O)oc2c1)C(C)C` [compound 4, AcRRRAVFLA-4mc] (Ac-RRRAVFLA-{AMC}), at PARL, the “Cleavage of substrate by liposome-embedded PARL” value is “are cleaved by liposome-embedded PARL but not its catalytic mutant”.
